Data reported in US10227331B2 (priority 2015, dated 2019).
Read-outs that look alike come from different tables or passages of the source.

How the values were obtained:
[1] = tested on: Serratia marcescens expressing IMP-1 (CL5741); type: cell-based; conditions: with imipenem 1 μg/ml, 95% inhibition of bacterial growth; for Serratia marcescens MITC95: IMP-1 (CL5741)
Procedure, shortened: (§1)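 Clinical strains grown overnight on blood agar, then diluted 1:100 in 1.1× CAMHB and exposed to test compound with imipenem at 1 μg/ml. Incubation was 22–24 h at 35° C; growth was read by absorbance to find the compound concentration restoring imipenem susceptibility.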

[2] = tested on: Klebsiella pneumoniae expressing VIM-1 (IHMA599644); type: cell-based; conditions: with imipenem 1 μg/ml, 95% inhibition of bacterial growth; for Klebsiella pneumoniae MITC95: VIM-1 (IHMA599644)
Procedure, shortened: as §1

[3] = tested on: Escherichia coli expressing NDM-1 (CLB30005, CLB30016); type: cell-based; conditions: with imipenem 1 μg/ml, 95% inhibition of bacterial growth; for Escherichia coli MITC95: NDM-1 (CLB30016)
Procedure, shortened: as §1

[4] = tested on: P. aeruginosa expressing IMP-1, efflux+ (MB9798); type: cell-based, Pseudomonas aeruginosa; conditions: for P. aeruginosa expressing IMP-1, efflux+ (MB9798) MITC95: imipenem at 2 μg/mL, in the presence of a class A, C, D serine β-lactamase inhibitor closely related to relebactam; for Efflux ratio: ratio MITC95 PA_9798/MITC95 PA_9799
From the text: (§2) The strain background is Pseudomonas aeruginosa PAO1.

[5] = target: IMP-1 (Serratia marcescens, UniProt P52699); assay: biochemical; type: biochemical
Chain of IMP-1 (P52699 whole entry, looked up, species assumed): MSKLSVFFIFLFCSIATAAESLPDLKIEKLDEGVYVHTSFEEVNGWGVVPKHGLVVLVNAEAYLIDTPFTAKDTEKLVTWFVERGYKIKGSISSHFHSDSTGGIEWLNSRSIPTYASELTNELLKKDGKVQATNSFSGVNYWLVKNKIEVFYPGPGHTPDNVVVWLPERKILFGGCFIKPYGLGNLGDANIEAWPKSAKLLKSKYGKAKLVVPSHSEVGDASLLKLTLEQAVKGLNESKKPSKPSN
Procedure, shortened: (§3)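 Fluorescence assay of metallo-β-lactamase activity using CCF2-FA, a cephalosporin-linked 7-hydroxycoumarin–fluorescein substrate. Inhibitor, enzyme and substrate were incubated together for 2 hours at 25° C. IC50 came from a 4-parameter fit of inhibition versus inhibitor concentration.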

[6] = target: NDM-1 (Klebsiella pneumoniae, UniProt C7C422); assay: biochemical; type: biochemical; conditions: CCF2-FA substrate, 2 hours at 25° C; read-out: NDM-1 IC50
Chain of NDM-1 (C7C422 whole entry, looked up, species assumed): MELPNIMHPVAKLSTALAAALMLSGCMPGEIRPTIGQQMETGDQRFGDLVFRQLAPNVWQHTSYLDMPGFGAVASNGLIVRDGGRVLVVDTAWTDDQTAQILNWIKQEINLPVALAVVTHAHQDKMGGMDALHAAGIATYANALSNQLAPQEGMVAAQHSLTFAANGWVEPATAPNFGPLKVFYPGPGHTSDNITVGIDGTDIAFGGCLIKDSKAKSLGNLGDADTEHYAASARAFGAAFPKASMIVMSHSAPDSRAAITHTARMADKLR
Procedure, shortened: as §3

[7] = tested on: P. aeruginosa expressing IMP-1, efflux− (MB9799); assay: Efflux: concentration of MBL inhibitor which restores susceptibility to imipenem; type: cell-based, Pseudomonas aeruginosa; conditions: imipenem at 2 μg/mL, in the presence of a class A, C, D serine β-lactamase inhibitor closely related to relebactam
From the text: as §2

[8] = target: VIM-1 (Pseudomonas aeruginosa (strain ATCC 15692 / DSM 22644 / CIP 104116 / JCM 14847 / LMG 12228 / 1C / PRS 101 / PAO1), UniProt A0A0F7KYQ8); assay: biochemical; conditions: CCF2-FA substrate, 2 hours at 25° C
Procedure, shortened: as §3

[9] = CCF2-FA substrate, 2 hours at 25° C, read-out: IMP-1 IC50

SMILES	Serratia marcescens MITC95 [1] [µM]	Klebsiella pneumoniae MITC95 [2] [µM]	Escherichia coli MITC95 [3] [µM]	P. aeruginosa expressing IMP-1, efflux+ (MB9798) MITC95 [4] [µM]	Efflux ratio [4]	IC50 [5, 9] [pM]	IC50 [6] [pM]	P. aeruginosa expressing IMP-1, efflux− (MB9799) MITC95 [7] [µM]	IC50 [8] [pM]	Serratia marcescens expressing IMP-1 (CL5741) MITC95 [1] [µM]	Klebsiella pneumoniae expressing VIM-1 (IHMA599644) MITC95 [2] [µM]	Escherichia coli expressing NDM-1 (CLB30016) MITC95 [3] [µM]	IC50 [5] [pM]
Nc1ncccc1-c1cc(-c2ccc(S(=O)(=O)C3CNC3)c(S(N)(=O)=O)c2-c2nnn[nH]2)ccn1 [Example 310, 3-(2′-Amino-[2,3′-bipyridin]-4-yl)-6-(azetidin-3-ylsulfonyl)-2-(1H-tetrazol-5-yl)benzenesulfonamide]	1.563	3.125	1.563	25	15.99	2300	1040	1.563	319	–	–	–	–
CC(=O)Nc1ccc(-c2ccc(S(=O)(=O)CCN)c(S(N)(=O)=O)c2-c2nnn[nH]2)cn1.O=C(O)C(F)(F)F [Example 135, 2-((4-(6-acetamidopyridin-3-yl)-2-sulfamoyl-3-(1H-tetrazol-5-yl)phenyl)sulfonyl)ethanaminium 2,2,2-trifluoroacetate]	–	–	–	3.125	2.00	1650	265	1.563	1220	3.125	6.25	0.7813	–
NCCS(=O)(=O)c1ccc(-c2ccnc3ccccc23)c(-c2nnn[nH]2)c1S(N)(=O)=O.O=C(O)C(F)(F)F [Example 138, 2-((4-(quinolin-4-yl)-2-sulfamoyl-3-(1H-tetrazol-5-yl)phenyl)sulfonyl)ethanaminium 2,2,2-trifluoroacetate]	–	–	–	6.25	4.00	1280	800	1.563	410	3.125	6.25	1.563	–
CS(=O)(=O)N1CC(S(=O)(=O)c2ccc(-c3cccc4[nH]c(N)nc34)c(-c3nn[nH]n3)c2S(N)(=O)=O)C1 [Example 55, 3-(2-amino-1H-benzo[d]imidazol-4-yl)-6-(1-(methylsulfonyl)azetidin-3-ylsulfonyl)-2-(2H-tetrazol-5-yl)benzenesulfonamide]	–	–	–	50	31.99	1420	81.8	1.563	312	3.125	6.25	3.125	–
NC[C@@H](N)CS(=O)(=O)c1ccc(-c2ccc(N)nc2)c(-c2nn[nH]n2)c1S(N)(=O)=O [Example 371, (R)-3-(6-aminopyridin-3-yl)-6-((2,3-diaminopropyl)sulfonyl)-2-(2H-tetrazol-5-yl) benzenesulfonamide]	1.563	3.125	1.563	3.125	2.00	1380	1160	1.563	1080	–	–	–	–
NC[C@@H](O)CS(=O)(=O)c1ccc(-c2cccc3sc(N)nc23)c(-c2nn[nH]n2)c1S(N)(=O)=O [Example 352, (R)-6-((3-amino-2-hydroxypropyl)sulfonyl)-3-(2-aminobenzo[d]thiazol-4-yl)-2-(2H-tetrazol-5-yl) benzenesulfonamide]	0.7813	1.563	0.7813	0.3906	–	145	65.8	0.7813	255	–	–	–	–
NS(=O)(=O)c1c(S(=O)(=O)C2CNC2)ccc(-c2cccc3cccnc23)c1-c1nnn[nH]1.O=C(O)C(F)(F)F [Example 128, 3-((4-(quinolin-8-yl)-2-sulfamoyl-3-(1H-tetrazol-5-yl)phenyl)sulfonyl)azetidin-1-ium 2,2,2-trifluoroacetate]	–	–	–	3.125	2.00	524	134	1.563	314	3.125	3.125	1.563	–
NC[C@H](O)CS(=O)(=O)c1ccc(-c2ccc(N)nc2)c(-c2nn[nH]n2)c1S(N)(=O)=O [Example 365, (S)-6-((3-amino-2-hydroxypropyl)sulfonyl)-3-(6-aminopyridin-3-yl)-2-(2H-tetrazol-5-yl) benzenesulfonamide]	0.7813	2.344	0.293	1.172	1.50	1210	1530	0.7813	632	–	–	–	–
NCCS(=O)(=O)c1ccc(-c2ccc3nc(N)oc3c2)c(-c2nn[nH]n2)c1S(N)(=O)=O [Example 75, 3-(2-aminobenzo[d]oxazol-6-yl)-6-(2-aminoethylsulfonyl)-2-(2H-tetrazol-5-yl)benzenesulfonamide]	–	–	–	6.25	8.00	433	500	0.7813	283	1.563	1.563	1.563	–
Nc1nc2c(-c3ccc(S(=O)(=O)[C@H]4CCNC4)c(S(N)(=O)=O)c3-c3nn[nH]n3)cccc2o1 [Example 190, 3-(2-aminobenzo[d]oxazol-4-yl)-6-((S)-pyrrolidin-3-ylsulfonyl)-2-(2H-tetrazol-5-yl)benzenesulfonamide]	–	–	–	1.563	1.00	–	113	1.563	169	1.563	3.125	1.563	352
Nc1nc2cccc(-c3ccc(S(=O)(=O)C4CCN(CCO)CC4)c(S(N)(=O)=O)c3-c3nn[nH]n3)c2[nH]1 [Example 47, 3-(2-amino-3H-benzo[d]imidazol-4-yl)-6-(1-(2-hydroxyethyl)piperidin-4-ylsulfonyl)-2-(2H-tetrazol-5-yl)benzenesulfonamide]	–	–	–	6.25	4.00	846	214	1.563	361	3.125	3.125	1.563	–
